Patent US11951131B2, “Anti-SLAMF7 chimeric antigen receptors” (The United States of America, as represented by the …, priority 2018, dated 2024)

Legend:
[1] = tested on: IC9-Luc90-CD828Z CAR T cells; test: AP1903 abrogation of CAR T-cell activity in MM.1S tumor-bearing mice; type: in vivo, NSG mice
Description: (§1) First, MM.1S human SLAMF7^+ multiple myeloma cell line tumors were established in immunodeficient mice. In this model, the MM.1S cells formed a solid cutaneous mass. Measurable tumors were allowed to develop over 7 days, and then the mice were treated with a single intravenous infusion of MSGV1-IC9-Luc90-CD828Z-transduced human T cells. NSG mice (NOD.Cg-Prkdc^scid Il2rg^tm1Wjl/SzJ) from The Jackson Laboratory, Bar Harbor, Me., were used. Mice received intradermal injections of 4×10^6 MM.1S cells. The cells were suspended in a 1:1 mixture of MATRIGEL™ gelatinous protein mixture (BD Biosciences) and PBS (Phosphate-buffered saline) for injection. Tumors were allowed to grow for 7 days, and then each mouse received a single intravenous infusion of human T cells that were transduced with one of 3 CARs: IC9-Luc90-CD828Z (suicide gene+anti-SLAMF7 CAR), Luc90-CD828Z (anti-SLAMF7 CAR alone), or a negative-control anti-CD19 CAR Hu19-CD828Z. A 4th group was left untreated. All groups included 5 mice. After CAR T-cell infusion, the tumors were measured with calipers every 3 days. The longest length and the length perpendicular to the longest length and the tumor thickness were multiplied together to obtain the tumor volume in mm^3. When the longest length reached 15 mm, mice were sacrificed. Animal studies were approved by the National Cancer Institute Animal Care and Use Committee.
MM.1S tumors were established in NSG mice as described in Example 9. The mice were treated with 2×10^6 IC9-Luc90-CD828Z T cells. The mice received 5 mg/kg of AP1903 intraeritoneally for either 3 days or 12 days after the CAR T-cell infusion. […] Also levels of IC9-Luc90-CD828Z CART cells in the mice receiving AP1903 were reduced as compared to the mice receiving the vehicle.

IC9-expressing T cells = test: 6-hour and 48-hour post-rimiducid T cell death analysis; type: cell-based, human; conditions: for elimination of transduced T cells by AP1903: 1, 10 or 100 ng/mL; for annexin V staining of residual CAR^+ T cells: AP1903 6 hours; for annexin V staining of residual CAR+ cells: AP1903 48 hours
Description: On day 8 of culture, 1 million T cells from cultures that were either untransduced or transduced with one of the anti-SLAMF7 CARs cells were suspended at 1×10^6 T cells/mL in AIM V™ media (Invitrogen) plus 300 IU of interleukin-2. One million cells were added to each of 4 wells of a 12-well plate. A different concentration of AP1903 (MedChem Express, Princeton, N.J.) from was added to each well. AP1903 is also referred to as rimiducid. The concentrations of AP1903 evaluated were: 0, 1, 10, or 100 ng/mL.
Six hours and 48 hours after these cultures were set up, the cells were counted, washed, and stained with Protein L as described above. Next, the cells were washed twice with PBS, re-suspended in Annexin V binding buffer (BD Biosciences), and incubated with allophycocyanin-conjugated Annexin V (BD Biosciences) and 7AAD (BD Biosciences) for 15 minutes (mins) at room temp. The cells were immediately analyzed by flow cytometry.

[2] = tested on: MM.1S human SLAMF7^+ multiple myeloma solid tumors; test: MM.1S solid tumor model in NSG mice, anti-tumor efficacy; type: in vivo; conditions: 2 million CAR^+ T cells per mouse, 5 mice per group (FIG. 17)
Description: as §1
FIGS. 16A-16B show a dose-titration of IC9-Luc90-CD828Z-expressing T cells. In this experiment, immunocompromised NSG mice were injected intradermally with 4×10^6 MM.1S cells to form a solid mass. Mice were then treated with a single infusion of 0.5×10^6, 2×10^6, or 8×10^6, IC9-Luc90-CD828Z-expressing T cells. […] The tumor volume curves end when the first mouse of a group was sacrificed.
MM.'S tumors were established in NSG mice as described in Example 9. FIGS. 17A-17B show results in which mice bearing MM.1S tumors were treated with T cells expressing one of 3 different CARs: IC9-Luc90-CD828Z (suicide gene+anti-SLAMF7 CAR), Luc90-CD828Z (anti-SLAMF7 CAR alone), or a negative-control anti-CD19 CAR Hu19-CD828Z. A 4th group was left untreated in both experiments. All groups included 5 mice. The CARP T cell dose was 2 million CARP T cells per mouse. There were 5 mice in all groups.

SLAMF7-K562 = test: IFN-gamma ELISA, CAR T cells cultured overnight with SLAMF7-K562 target cells; type: cell-based, human; conditions: Table E; overnight culture
Source text: (§2) MM.1S is a SLAMF7^+ multiple myeloma cell line that was obtained from American Type Culture Collection (ATCC). A549 is a BCMA-negative lung cancer cell line (ATCC). TC71 is a BCMA-negative sarcoma cell line. CCRF-CEM, 293T, and A549 are SLAMF7-negative cell lines (ATCC). COL0207, HepG2, U251, Panc10.05, and TC71 are […] that were kind gifts from Dr. Steven Rosenberg, National Cancer Institute. SLAMF7-K562 are K562 cells (ATCC) which were transduced with the gene for full-length SLAMF7. SLAMF7-RPMI are RPMI8226 cells (ATCC) which were transduced with the gene for full-length SLAMF7. NGFR-K562 are K562 cells which were transduced with the gene for low-affinity nerve growth factor (Kochenderfer et al., J. Immunother., 32(7): 689-702 (2009)). All of the human samples mentioned were obtained from patients enrolled in IRB-approved clinical trials at the National Cancer Institute.
(§3) One-hundred thousand SLAMF7^+ or SLAMF7-negative target cells were combined with 100,000 CAR-transduced T cells in duplicate wells of a 96 well round bottom plate in 200 µL of AIM V™ medium (Invitrogen) plus 5% human serum. The plates were incubated at 37° C. for 18-20 hours. Following the incubation, ELISAs (enzyme-linked immunosorbent assays) for IFNγ were performed by using standard methods.
(§4) The T cells columns indicate whether T cells were transduced with Luc90-CD828Z, Luc63-CD828Z, or were untransduced. The % CAR^+ in Table B-1 was determined by staining the T cells with Protein L. Except for the % CAR^+ column, all values are pg/mL of IFN-gamma. T cells that were either untransduced or transduced with one of the indicated CARs were cultured with target cells overnight and a standard IFN-gamma ELISA was performed on the culture supernatant.
(§5) All values are pg/mL of IFN-gamma. T cells that were either untransduced or transduced with one of the indicated CARs were cultured with target cells overnight, and a standard IFN-gamma ELISA was performed on the culture supernatant.

CCRF-CEM = test: IFN-gamma ELISA, CAR T cells with CCRF-CEM target cells; type: cell-based, human; conditions: Table E
Source text: as §2, §3, §5

SLAMF7-K562 target cells = test: CFSE proliferation assay; type: cell-based, human; conditions: SLAMF7-K562 versus NGFR-K562 target cells, 4 days (FIGS. 8B, 8C)
Source text: Cocultures were set up in 24-well plates. Target cells included in cocultures were either 0.5×10^6 irradiated SLAMF7-K562 cells or 0.5×10^6 irradiated NGFR-K562 cells. The cocultures also included 1×10^6 T cells from cultures that had been transduced with either […]. The T cells were labeled with carboxy fluorescein diacetate succinimidyl ester (CFSE, Invitrogen) as previously described. The medium used in the cocultures was AIM V™ (Invitrogen) plus 5% human AB serum. IL-2 was not added to the medium. Four days after initiation, the live cells in each coculture were counted with trypan blue for dead cell exclusion, and flow cytometry was performed by Protein L staining.

NGFR-K562 = test: IFN-gamma ELISA, CAR T cells with NGFR-K562 target cells; type: cell-based, human; conditions: Table E
Source text: as §2, §3, §4, §5
(§6) The values in the cells are pg/mL of IFN-gamma. T cells that were either untransduced or transduced with one of the indicated CARs were cultured with target cells overnight, and a standard IFN-gamma ELISA was performed on the culture supernatant. The concentrations of 0, 50, or 200 ng/mL at the top of each column indicates the concentration of soluble SLAMF7 added to all T cell plus target cell overnight cultures in that column. The soluble SLAMF7 was added at the beginning of the overnight culture.

SLAMF7^+ MM.1S cells = test: Cytotoxicity assay (4 hours, relative to CCRF-CEM cells); type: cell-based, human; conditions: MM.1S relative to control CCRF-CEM cells (FIG. 8A)
Description: Cytotoxicity assays were conducted as previously described (see Kochenderfer et al., J. Immunother., 32(7): 689-702 (2009)). Cytotoxicity was measured by comparing survival of SLAMF7^+ target cells relative to the survival of negative-control CCRF-CEM cells. Both of these cell types were combined in the same tubes with CAR-transduced T cells. CCRF-CEM negative control cells were labeled with the fluorescent dye 5-(and -6)-(((4-chloromethyl)benzoyl)amino) tetramethylrhodamine (CMTMR) (Invitrogen), and SLAMF7^+ target cells were labeled with CFSE. Cocultures were set up in sterile 5 mL test tubes (BD Biosciences) in duplicate at multiple T cell to target cell ratios. The target cells contained in the tubes were 50,000 SLAMF7^+ target cells along with 50,000 CCRF-CEM negative-control cells. The cultures were incubated for 4 hours at 37° C. Immediately after the incubation, 7AAD (7-amino-actinomycin D) (BD Biosciences) was added, and flow cytometry acquisition was performed. For each T cell plus target-cell culture, the percent survival of SLAMF7^+ target cells was determined by dividing the percent live SLAMF7^+ cells by the percent live CCRF-CEM negative control cells. The corrected percent survival of SLAMF7^+ target cells was calculated by dividing the percent survival of SLAMF7^+ target cells in each T cell plus target cell culture by the ratio of the percent live SLAMF7^+ target cells to percent live CCRF-CEM negative-control cells in tubes containing only SLAMF7^+ target cells and CCRF-CEM cells without effector T cells. This correction was necessary to account for variation in the starting cell numbers and for spontaneous target cell death. Cytotoxicity was calculated as follows: the percent cytotoxicity of […] target cells=100−corrected percent survival of SLAMF7^+ target cells.

T cells only = test: IFN-gamma ELISA, T cells only (no target cells); type: cell-based, human; conditions: Table E
Description: as §3, §4, §5, §6

MM.1S = test: IFN-gamma ELISA, CAR T cells with MM.1S target cells; type: cell-based, human; conditions: Table E
Source text: as §2, §3, §5

[3] = T cells transduced with IC9-Luc90-CD828Z
[4] = T cells transduced with Luc90-CD828Z-IC9

CC[C@H](C(=O)N1CCCC[C@H]1C(=O)O[C@H](CCc1ccc(OC)c(OC)c1)c1cccc(OCC(=O)NCCNC(=O)COc2cccc([C@@H](CCc3ccc(OC)c(OC)c3)OC(=O)[C@@H]3CCCCN3C(=O)[C@@H](CC)c3cc(OC)c(OC)c(OC)c3)c2)c1)c1cc(OC)c(OC)c(OC)c1 [AP1903]
tumor outcome in mice receiving AP1903 after CAR T cells ([1]; 2×10^6 IC9-Luc90-CD828Z T cells, AP1903 5 mg/kg intraperitoneally (FIG. 18)): progressive tumors | levels of IC9-Luc90-CD828Z CAR T cells in mice ([1]; AP1903 5 mg/kg compared to vehicle): reduced | elimination of transduced T cells by AP1903 (IC9-expressing T cells; T cells transduced with IC9-Luc90-CD828Z, 6 hours): most transduced cells exposed to either 1, 10, or 100 ng/mL of AP1903 were eliminated | elimination of transduced T cells by AP1903 (IC9-expressing T cells; T cells transduced with IC9-Luc90-CD828Z, 48 hours): most transduced cells exposed to either 1, 10, or 100 ng/mL of AP1903 were eliminated | annexin V staining of residual CAR^+ T cells (IC9-expressing T cells; [3]): most residual CAR^+ T cells in the AP1903-treated cultures were annexin V^+ | annexin V staining of residual CAR+ cells (IC9-expressing T cells; [3]): most residual CAR+ cells were annexin V^+ | elimination of transduced T cells by AP1903 (IC9-expressing T cells; T cells transduced with Luc90-CD828Z-IC9, 6 hours): most transduced cells exposed to either 1, 10, or 100 ng/mL of AP1903 were eliminated | elimination of transduced T cells by AP1903 (IC9-expressing T cells; T cells transduced with Luc90-CD828Z-IC9, 48 hours): most transduced cells exposed to either 1, 10, or 100 ng/mL of AP1903 were eliminated | annexin V staining of residual CAR^+ T cells (IC9-expressing T cells; [4]): most residual CAR^+ T cells in the AP1903-treated cultures were annexin V^+ | annexin V staining of residual CAR+ cells (IC9-expressing T cells; [4]): most residual CAR+ cells were annexin V^+ | dependence of elimination on AP1903 concentration (IC9-expressing T cells; clinically-relevant range of concentrations tested (1-100 ng/mL)): did not depend on the concentration of AP1903

Hu19-CD828Z: negative-control anti-CD19 CAR [reference compound]
anti-tumor activity [2]: progressive tumors

Luc90-CD828Z-IC9: CAR plus suicide gene construct (SEQ ID NO: 30): Luc90-CD828Z, T2A, IC9 suicide gene 3′ to the CAR
IFN-gamma, SLAMF7-K562 (SLAMF7-K562): 2249 pg/mL | IFN-gamma, CCRF-CEM (CCRF-CEM): 42 pg/mL | proliferation (CFSE dilution) (SLAMF7-K562 target cells): proliferated more | IFN-gamma, NGFR-K562 (NGFR-K562): 33 pg/mL | killing of SLAMF7^+ target cells (SLAMF7^+ MM.1S cells): specifically killed the SLAMF7^+ MM.1S cells | IFN-gamma, T-cells Alone (T cells only): 39 pg/mL | IFN-gamma, MM.1S (MM.1S): 1333 pg/mL
